According to PubChem BioAssay AID179 (DTP/NCI, 2004):
pEC50, pIC50: −log10 of the molar value. Calls of active or inactive are those of the source.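 The calls were made as follows: active = compounds giving half or more protection of infected cells from virus-caused growth loss, again on retest; inactive = the rest.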 Where a SMILES comes first, the peptide text is derived from it. The star is where a group is joined. Boc = CC(C)(C)OC(=O)*

System: CEM cells HIV-1 protection, formazan growth assay
Test: NCI AIDS Antiviral Assay
Conditions: for pIC50: measured here: growth of uninfected CEM cells
Method in brief: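 Protection of CEM cells against HIV-1 measured as cell growth via soluble formazan read-out, with five concentrations tested on both infected and uninfected cells; failure to protect may reflect toxicity.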

SMILES	pEC50	pIC50	outcome
C[C@@H]1C(=O)O[C@H]1[C@H](O)CO	< 3.70	< 3.70	
O=C(/C=C/c1cccc2ccccc12)c1ccccc1Cl	< 4.89	4.96	
CC(=O)Oc1cc2c(n(C)c1=O)-c1ccccc1C2	< 3.70	5.18	
Cn1c(=O)c(C(=O)NC(=O)OCc2ccccc2)cn(CCCOC(=O)CCCCCCCCC(=O)OCCCn2cc(C(=O)NC(=O)OCc3ccccc3)c(=O)n(C)c2=O)c1=O	< 4.67	< 4.67	
COc1cccc2c1[C@H]1OC(=O)NC1CCCCC2 (some centres not stated)	< 3.70	< 3.70	
Clc1c(Cl)c2c(Cl)c(Cl)c1C[P+](c1ccccc1)(c1ccccc1)CC[P+](c1ccccc1)(c1ccccc1)Cc1c(Cl)c(Cl)c(c(Cl)c1Cl)C[P+](c1ccccc1)(c1ccccc1)CC[P+](c1ccccc1)(c1ccccc1)C2	< 4.18	5.33	
N#Cc1nc(-c2ccccc2C(=O)O)oc1N			inactive
C[N+]1=C2[B-](C(C)(C)C)=[N+](C(C)(C)C)[B-]2(C(C)(C)C)[N+](C)=C2[B-](C(C)(C)C)=[N+](C(C)(C)C)[B-]21C(C)(C)C (configuration not stated)	< 4.30	< 4.30	
CC(=O)NC(CCCN(Cc1ccccc1)C(=O)NCCCl)C(=O)NCc1ccccc1 (configuration not stated)	< 3.41	3.46	
COc1cc2oc(-c3ccc4c(c3)OCO4)c(OC)c(=O)c2c(OC)c1O	< 3.70	< 3.70	
CSC(C)CS(=O)(=O)O (configuration not stated)	< 3.70	< 3.70	
O=c1[nH]n(Cc2ccccc2)c2ccc([N+](=O)[O-])cc12	< 3.70	4.59	
O=C(CC1C(=O)Nc2ccccc2S1=O)Nc1cccc(Cl)c1 (configuration not stated)	< 4.68	< 4.68	
CCOC(=O)C(N=O)C(=O)c1ccccc1 (configuration not stated)			inactive
CN1CCN(c2n[nH]c(=O)c3c2nnn3Cc2ccccc2)CC1	< 3.70	< 3.70	
c1ccc([P+](CC2CCCO2)(c2ccccc2)c2ccccc2)cc1 (configuration not stated)	< 3.70	5.55	
O=C1NC(O)c2c(F)cccc2O1 (configuration not stated)	< 3.70	3.88	
COc1ccccc1C1C(Cl)C(=O)N1n1cnc2ccccc2c1=O (configuration not stated)	< 4.28	< 4.28	
CC[C@H]1CN2CCc3cc(OC)c(OC)cc3[C@@H]2C[C@@H]1C[C@@H]1c2cc(OC)c(OC)cc2CCN1N=O			inactive
Cc1ccccc1NC(=O)C(=O)Cc1nc2ccccc2s1	< 4.92	< 4.92	
OC[C@H]1C[C@@H]2Cc3ccccc3N2N1	< 3.70	< 3.70	

SMILES	pEC50	pIC50	outcome
CCN(CC)CCN(C)CC(C)(C)C(=O)/C=C/c1ccccc1			inactive
O=C(CCN1CCCCC1CCO)Nc1ccc2c(c1)C(=O)c1ccc(NC(=O)CCN3CCCCC3CCO)cc1C2=O (configuration not stated)	< 3.70	5.58	
O=[N+]([O-])c1ccc(Cc2nc3ccccc3s2)cc1	< 3.88	4.42	
CC1(C)OC(COCCOCCCCCO)C(COCCOCCCCCO)O1 (configuration not stated)			inactive
CN1N=C(c2ccncc2)OC1c1cccc(C(F)(F)F)c1 (configuration not stated)	< 3.70	4.35	
CC(C)c1c2[nH]c3ccccc3c2c(C(C)C)c2[nH]c3ccccc3c12	< 4.70	< 4.70	
NC(=S)SC1=NNC2(C(=O)N1)c1ccccc1-c1ccccc12	< 3.70	4.68	
Cc1coc(C)c1C(=S)Nc1ccc(Cl)c(C(=O)OC(C)C)c1	6.55	4.42	
Cc1cn(C2CC(N=[N+]=[N-])C(COP(=O)(OCC(=O)C(C)(C)C)OCC(=O)C(C)(C)C)O2)c(=O)[nH]c1=O (configuration not stated)	8.96	5.70	
CCOc1nc2sc3c(c2c(=O)n1CCSSCCn1c(OCC)nc2sc4c(c2c1=O)CCCC4)CCCC3	< 4.00	< 4.00	
COC(=O)C(Cc1ccccc1I)C1=CCC2(CC1)OCCO2 (configuration not stated)	< 3.70	4.31	
CC(O)c1ccc2c(c1)C(O)C[C@H]1[C@](C)(CO)CCC[C@]21C (some centres not stated)	< 3.70	3.85	
Cc1nc2cc([N+](=O)[O-])ccc2c(NCCCN(C)C)c1C	< 3.70	5.45	
OC1(CN2CCCCC2)N=C(c2ccccc2)c2ccsc2-n2cccc21 (configuration not stated)	< 3.70	3.93	
O=C1c2ccccc2C(=O)N1Cc1ccccc1-c1c2nc(c(-c3ccccc3CN3C(=O)c4ccccc4C3=O)c3ccc([nH]3)c(-c3ccccc3CN3C(=O)c4ccccc4C3=O)c3nc(c(-c4ccccc4CN4C(=O)c5ccccc5C4=O)c4ccc1[nH]4)C=C3)C=C2	< 5.38	< 5.38	
COc1cc(O)c2c(=O)c(O)c(-c3ccc(O)c(O)c3)oc2c1	< 4.03	4.32	
Cc1noc(NC(=O)Nc2ccccc2C(F)(F)F)c1C	< 3.70	< 3.70	
O=c1cc(-c2ccccc2)oc2cc(Oc3nnnn3-c3ccccc3)ccc12	< 3.70	4.37	
COc1cc2c(c(OC)c1OC)-c1ccc(OC)c(=O)cc1C([N+](C)(C)C)CC2 (configuration not stated)	< 3.70	4.96	
CC(C)n1c(=O)n(-c2ccccc2)n(C(C)(C)C)c1=O	< 3.70	< 4.00	
Cc1ccc(C)c(N2C(=O)C(=O)C(c3nc4ccccc4s3)/C(=N/N)C2=O)c1 (configuration not stated)	< 4.30	< 4.30	

SMILES	pEC50	pIC50	outcome
CC1=C(C(=S)Nc2ccc(Cl)c(C(=O)OC(C)C)c2)SCCO1	7.62	4.19	
CCCC1=NNc2n[nH]c(=S)n2N1	< 3.88	4.23	
CN1C(=O)CCC1(O)C1C=CC=CC1 (configuration not stated)	< 2.89	< 2.89	
O=[N+]([O-])c1ncn(S(=O)(=O)c2cccc3cccnc23)n1	< 3.70	< 3.70	
Clc1cc2c(c(CSc3nc4ccccc4n4cccc34)c1)OCOC2	< 4.87	< 4.87	
Cc1cccc(CNc2ncnc3[nH]ncc23)c1	< 3.70	< 3.70	
N#C/C(=C/c1ccc[nH]1)P(=O)(O)O	< 2.90	3.14	
CCCCCCCCCCCC(=O)C1=C(O)C(O)CCC1=O (configuration not stated)			inactive
Cc1cc2c(c(C=Nc3ccc([N+](=O)[O-])cc3)c1)OC1(C=C2)Oc2ccccc2C(=O)N1C (configuration not stated)	< 3.70	4.64	
OC(Cc1ccc2ccccc2n1)(C(F)(F)F)C(F)(F)F	< 3.70	< 3.70	
O=C1C=CC(=O)c2nc3c(nc21)[nH]c1ccccc13	< 4.58	4.88	
O=C1N=C(SC2OC(CO)C(O)C(O)C2O)S/C1=C\c1ccccc1 (configuration not stated)			inactive
COc1cc(CC(=O)O)c(C(=O)c2ccc(C#N)cc2)cc1OC	< 3.70	< 3.70	
CCOC(=O)[C@@H]1OC(c2ccccc2)O[C@H]1C(=O)OCC	< 3.70	< 3.70	
Cc1cccc2[s+]snc12	< 3.61	4.12	
CC1CC(O)c2ccccc2O1 (configuration not stated)	< 3.70	< 3.70	
CC(=O)O[C@]1(C)OC(=O)[C@@H](CC(C)C)N1[N+](=O)[O-]			inactive
CCN(CC)C(=O)C1(C)NS(=O)(=O)c2ccccc2C1=O (configuration not stated)	< 3.70	< 3.70	
O=C(Nc1ccccc1)c1cc(S(=O)(=O)Nc2nc3ncccc3[nH]2)c(SSc2cc(Cl)c(C(=O)Nc3ccccc3)cc2S(=O)(=O)Nc2nc3ncccc3[nH]2)cc1Cl	3.95	< 3.70	
CC(=O)OC1CCC23COC(CC(C)C2C)C3(Cl)C1 (configuration not stated)	< 3.70	< 3.70	
Cc1cc(Cl)ccc1NC(=O)CC/C(CC(=O)C(C)C)=N\NC(=O)C[n+]1ccccc1	< 4.79	< 4.79	

SMILES	pEC50	pIC50	outcome
COc1ccc(Cc2nc3ccccc3s2)cc1OC	< 3.90	4.86	
CC(C)(C)C1CCC(CC(=O)O)(CC(=O)Nc2nccs2)CC1 (configuration not stated)	< 3.70	4.05	
N#CC1CC(c2ccccc2)Nc2cc(Cl)ccc2N1 (configuration not stated)	< 4.32	5.16	
CC12COC3(C)CCC(C)(OC1)N23 (configuration not stated)	< 3.31	< 3.31	
O=C1C(C(O)(C(F)(F)Cl)C(F)(F)Cl)CCCC1C(O)(C(F)(F)Cl)C(F)(F)Cl (configuration not stated)	< 3.70	5.00	
CCOP(=O)(OCC)/C(C#N)=C/c1cccn1C(C)C	3.82	< 3.70	
COC(=O)C(=O)C(C(=O)C(=O)Nc1cccc(OC)c1)c1nc2ccc(Cl)cc2[nH]c1=O (configuration not stated)	< 3.69	3.72	
COc1ccc2oc(=O)c3c(c2c1C)OC(C)(C)C=C3	< 3.70	< 4.00	
CCCC(CC)c1cc(O)c(O)cc1C(CC)CCC (configuration not stated)	< 3.70	3.98	
CC1=C2C(c3ccccc3)(c3ccccc3)C3C=CC2(C=N3)N(C(=O)NC2CCCCC2)C1=O (configuration not stated)	< 4.94	< 4.94	
CN(C)c1ccc(/C=C/C=C2\C=Cc3ccccc32)cc1	< 4.44	< 4.44	
COC(=O)C(N)C(C)c1c[nH]c2ccccc12 (configuration not stated)	< 3.70	< 3.70	
O=C1/C(=C\c2cccc(Oc3ccccc3)c2)S(=O)(=O)C(c2ccccc2)N1c1cc(Cl)ccc1Cl (configuration not stated)	< 3.70	5.48	
COC(=O)C(Cc1c[nH]c2ccccc12)NC(=O)C(Cc1c[nH]c2ccccc12)NC(=O)C(Cc1c[nH]c2ccccc12)NC(=O)C(Cc1c[nH]c2ccccc12)NC(=O)C(Cc1c[nH]c2ccccc12)NC(=O)C(Cc1c[nH]c2ccccc12)NC(=O)C(Cc1c[nH]c2ccccc12)NC(=O)C(Cc1c[nH]c2ccccc12)NC(=O)OC(C)(C)C (configuration not stated) (Boc-WWWWWWWW-OMe; configuration not given here)	< 4.00	4.39	
O=C1OC(c2cccc3c(F)cccc23)c2ccccc21 (configuration not stated)			inactive
CCCCCC#COC1CC(C)CC[C@@H]1C(C)C (some centres not stated)	< 3.70	3.96	
CCCC(CC)c1c(O)c(O)c(C(CC)CCC)c(C(CC)CCC)c1C(CC)CCC (configuration not stated)	< 4.00	4.81	
Cc1nc(-c2cccnc2)sc1C(=O)CC(=O)C(=O)Nc1cccc(NC(=O)C(=O)CC(=O)c2sc(-c3cccnc3)nc2C)n1	< 3.56	3.80	
CCOC(=O)NC(Nc1ccc(S(=O)(=O)Nc2nc(C)cc(C)n2)cc1)(C(=O)OCC)C(F)(F)F (configuration not stated)	< 3.70	< 3.70	
Cn1nc(-c2ccccc2)c(C(=O)/C=C/c2ccc(F)cc2)c(N2CCCC2)c1=O	4.58	4.44	
